According to a melting point compilation (Tetko et al.; mined from patent text by program, amines drawn as free bases though some values may be those of a salt):

Compound	melting point [°C]
CCOC(=O)Cn1nc(-c2ccc(OC)cc2)cc(C(=O)OCC)c1=O	77.1 to 77.8
CCCSc1ncc(CC(NC(=O)CC(C)C)C(=O)O)n1Cc1ccccc1Cl (centres undefined)	151 to 154
CC(NC(=O)OCc1ccccc1)P(C)(=O)O (centres undefined)	118 to 119
O=c1c2cc(Cl)c(Cl)cc2nc2n1CS(=O)(=O)N2	> 300
O=C(Nc1ccc(C2=CN(C(=O)OCc3ccccc3)CCC2)c(F)c1)OCc1ccccc1	138 to 139
Cc1cc(-c2[nH]nc3c2C(=O)c2c(NC(N)=O)cccc2-3)c(C)s1	> 280
O=[N+]([O-])c1ccc2c(ccn2CCCCl)c1	74 to 76
CC(=O)Nc1ccc(-c2ccc3nnn(Cc4ccc5ncccc5c4)c3n2)cc1	220 to 223
c1nc2c(cc1NC1=NCCN1)CCCC2	201 to 203
COCCOc1cc(/C=C/C(=O)NS(=O)(=O)CCC(C)C)n(Cc2ccc(Cl)cc2Cl)n1	110 to 114
COC(=O)C(C)Oc1cc(Cl)ccc1CO (centres undefined)	51 to 52
Cc1cc(-c2cc(C(F)(F)F)n3ncc(C#N)c3n2)ccc1Cl	216
COc1ccccc1C(=CC=O)c1ccccc1OC	59.5 to 61.5
CCOC(=Cc1ccc(C(=O)OC)cc1)c1ccc2c(c1)C(C)(C)CCC2(C)C	204 to 206
N#Cc1cc([N+](=O)[O-])c2sc(N3CCC4(CC3)OCCO4)nc(=O)c2c1	217 to 220
CC(=O)OC12Oc3cc(C(C)C)ccc3C1(OC(C)=O)C(=O)c1c(NS(C)(=O)=O)cccc12 (centres undefined)	96 to 100
CCCCCCCCCNC1=CC(=O)c2c(OC)ccc(OC)c2C1=O	85 to 86
CCCCCCCCCCCCCCCc1c([N+](=O)[O-])cc([N+](=O)[O-])c(OC)c1C(=O)O	68 to 75
Cc1ccc2c(Br)c(Br)sc2c1	67.5 to 68.5
CC(O)c1nc(NCCCOc2cccc(CN3CCCCC3)c2)n(C)n1 (centres undefined)	67 to 68
COc1ccc(OC)c(C2OC(=O)c3c(OC)ccc(C)c32)c1 (centres undefined)	121 to 123
CCOc1cccc(CNCCc2ccccc2)c1O	88 to 90
CCOC(=O)C1=C(C)NC(C)=C(C(=O)OCCN2CCN(C(c3ccc(C)cc3)c3ccc(C)cc3)CC2)C1c1cccc(OC)c1 (centres undefined)	75 to 78
Cc1nc(-c2ccccc2)nc(-c2ccncc2)c1CO	175 to 176

Compound	melting point [°C]
COc1cc(OC)nc(-n2c(C(F)(F)F)nc3cc(C)ccc32)n1	93 to 96
CCOC(=O)c1c(C)nc2c(c1N)c1c(n2Cc2ccccc2)CCCC1	146 to 147
O=C(O)CON=Cc1ccc(Cl)cc1	121 to 123
O=CNn1cc(C(=O)O)c(=O)c2cc3c(cc21)OCO3	302
Cc1c(Cl)cc(C(C)C)c2oc(SCCN3CCN(CC(=O)Nc4c(C(C)C)cccc4C(C)C)CC3)nc12	162 to 163
COc1ccc(-c2cc(S(N)(=O)=O)sc2-c2ccc(OC)c(S(N)(=O)=O)c2)cc1S(N)(=O)=O	242 to 244
Cc1cc2c3c(ccc2cc1Br)OC(=O)C3(C)C	187 to 189
COc1ccc2c(c1)c(CN(O)C(=O)N(C)C)c(C)n2C(=O)c1ccc(Cl)cc1	173 to 174
CCCSP(=O)(OCC)Oc1ccc2cc3ccccc3cc2c1 (centres undefined)	79 to 83
CCCCC(=O)C1(Nc2ccccc2)CCN(CCc2ccccc2)CC1	71.3
Cn1nc(C(F)(F)F)c(CS(=O)C2=NOC(C)(C)C2)c1OC(F)F (centres undefined)	112 to 114
COC(=O)CC(CC(=O)OC)Sc1cc(OC)cc(OC)c1	98 to 99
Cc1cc2c(c(C)c1S(=O)(=O)C[N+](=O)[O-])CCC(C)(C)O2	110 to 111
O=C(c1cccc2cc[nH]c12)N1CCN(c2ncccn2)CC1	194 to 197
O=C1c2ccccc2-c2c1c1ccccc1c(=O)n2CCCO	173 to 175
CN1CC2=C(n3cnc(I)c3C1)S(=O)C=C2 (centres undefined)	175 to 177
O=C(NC(c1ccccc1)c1cc2ccncc2[nH]1)c1ccccn1 (centres undefined)	102 to 110
CC(CC(=O)O)(c1ccc(OCc2ccc3ccccc3n2)cc1)c1ccc(OCc2ccc3ccccc3n2)cc1	94 to 96
O=C(Cn1cc(Cc2ccccc2)cc(NC(=O)OCc2ccccc2)c1=O)NC(Cc1ccccc1)C(=O)C(F)(F)F (centres undefined)	127 to 130
N=C(NO)c1ccc(-c2ccc(-c3nc4cc(C(=N)NO)ccc4[nH]3)c(F)c2)cc1	281 to 283
COc1ccc(-c2cc(=O)n(C3CCCC3)nc2-c2ccc(OC)cc2)cc1	141 to 142
O=C(O)Cc1c(-c2ccccc2)nn(-c2cccc(C(F)(F)F)c2)c1-c1ccccc1	166 to 167
O=C(CBr)c1cccc(OCc2ccc3ccc(Cl)cc3n2)c1	110 to 112
Cc1c(C=NO)c2cc(F)ccc2n1-c1ccc(OCc2ccccc2)cc1	183 to 185

Results, then the compound that gave them:

melting point [°C]	Compound
139 to 140	CC#CN1N=C(c2ccc(F)cc2)c2cc(Cl)ccc2CS1(=O)=O
282 to 284	COc1ccc2cc3c(c(-c4ccc(F)cc4)c2c1)CNC3=O
148 to 150	CN1CCN(c2cc(Cl)cc3c2c(=O)n(Cc2cccc(F)c2)c(=O)n3Cc2ccccc2)CC1
194 to 195	Cc1ccc(C(=O)Nc2ccc(CN3CCCCC3)c(C(F)(F)F)c2)cc1-c1ccc2cnncc2c1
66 to 69	CCC1(CCCN2CCc3sccc3C2)C(=O)Nc2ccc(Cl)cc21 (centres undefined)
88 to 89	CCCOc1ccc(S(=O)(=O)N2CCN(CCOC(=O)C(C)C)CC2)cc1-c1nc2c(CCC)cn(CC)c2c(=O)[nH]1
153 to 154	COc1nc(Nc2ccc(F)cc2F)c(C(=O)Cl)cc1F
124 to 126	CCCc1nn(C)c2c(=O)n(CCCNc3ccc(OC(C)(C)C(=O)O)cc3)c(CC)nc12
106	CCCCNC(=O)c1ccc(F)c2c1CC(N(CCCc1c[nH]c3ccc(F)cc13)C1CCC1)CO2 (centres undefined)
39 to 40	CCCCOC(=O)c1ccc(OCCCC)c(C(C)=O)c1
188 to 189	CC(CNC(=O)c1c2ccccc2nc2c1[nH]c1ccccc12)N(C)C (centres undefined)
145 to 147	Cc1cc(C2=NNC(=O)CC2)ccc1CCCCN
132 to 135	CCc1nc2ccc3c(c2nc1CC)OC(COS(=O)(=O)c1ccc(C)cc1)CO3 (centres undefined)
267 to 268	CC(=O)Nc1ccc(N2C(=O)CCCC2c2ccc(Cl)c(Cl)c2)cc1 (centres undefined)
215 to 216	CCCCC(=O)N1CCC(c2nc(-c3ccc(-c4ccccc4)cc3)c[nH]2)CC1
113 to 114	CN(O)CCCc1ccc2c(c1)C(=O)c1ccccc1CO2
218 to 220	O=C(O)c1oc(=O)c2ccccc2c1-c1ccc(F)cc1
87 to 89	CCN(CC)CCCNC(=O)C(C)n1cc(-c2ccccc2)c(-c2ccccc2)n1 (centres undefined)
88 to 90	CN(C)CCCCCCNc1nc2cc(Cl)c(Cl)cc2nc1-c1ccccn1
232 to 234	Cc1nc(N2CCN(CC(=O)NCc3ccc(F)cc3)C2=O)sc1C(=O)NCc1ccccc1
227 to 228	CC1Cc2c(n(-c3ccc(Cl)cc3)c3ncccc3c2=O)O1 (centres undefined)
